The values that follow come from ChEMBL document CHEMBL4513139, “CO-ADD screening of University of Strathclyde (UK) compounds”.

One experiment deals with Klebsiella pneumoniae. Briefly: microbe, parasite or virus in culture. To be noted: ATCC 700603, 18 h, ASSAY_TEST Inhibition of Bacterial Growth, detection method Absorption (OD600), MEDIA CAMHB, plate type 384well, NBS, CORNING #3640.
For a further experiment, the system named is HEK293. The experiment in a line: cells. Type of experiment: functional, Homo sapiens, ATCC CRL1573. To be noted: Homo sapiens, ATCC CRL1573, HEK293; ASSAY_TEST Inhibition of Cell Viability; detection method Resazurin; Fluorescence (ex560/em590); MEDIA DMEM with 10% FBS; plate type 384well; TC; CORNING #3712; time 18 hr; read-out: CC50. On the technique in general: The colour change of resazurin is a common sign of viable cells or microbes.

The next experiment has as its system Escherichia coli. Briefly: microbe, parasite or virus in culture. The settings on record: ATCC 25922, 18 h, ASSAY_TEST Inhibition of Bacterial Growth, detection method Absorption (OD600), MEDIA CAMHB, plate type 384well, NBS, CORNING #3640.
The next experiment relates to Acinetobacter baumannii. Briefly: microbe, parasite or virus in culture. To be noted: ATCC 19606, 18 h, ASSAY_TEST Inhibition of Bacterial Growth, detection method Absorption (OD600), MEDIA CAMHB, plate type 384well, NBS, CORNING #3640.
Another experiment concerns Pseudomonas aeruginosa. Briefly: microbe, parasite or virus in culture. To be noted: ATCC 27853, 18 h, ASSAY_TEST Inhibition of Bacterial Growth, detection method Absorption (OD600), MEDIA CAMHB, plate type 384well, NBS, CORNING #3640.
The test system of the next experiment is Candida albicans. The experiment in a line: microbe, parasite or virus in culture. To be noted: ATCC 90028, ASSAY_TEST Inhibition of Fungal Growth, detection method Absorption (OD530), plate type 384well, NBS, CORNING #3640.
The test system of a further experiment is Staphylococcus aureus. The experiment in a line: microbe, parasite or virus in culture. To be noted: ATCC 43300, 18 h, ASSAY_TEST Inhibition of Bacterial Growth, detection method Absorption (OD600), MEDIA CAMHB, plate type 384well, NBS, CORNING #3640.

The structures appear in SMILES notation. Converted amounts (≈) assume the structure as drawn. Bounds are passed on as bounds.

Description for Acinetobacter baumannii: Antibacterial activity against Acinetobacter baumannii ATCC 19606 (CO-ADD:GN_034); MIC in CAMBH media using NBS plates, by OD600
Description for Candida albicans: Antifungal activity against Candida albicans ATCC 90028 (CO-ADD:FG_001); MIC in YNB media using NBS plates, by OD630
Description for Cryptococcus neoformans: Antifungal activity against Cryptococcus neoformans H99 ATCC 208821 (CO-ADD:FG_002); MIC in YNB media using NBS plates, by Resazurin OD(600-570)
Description for Escherichia coli: Antibacterial activity against Escherichia coli ATCC 25922 (CO-ADD:GN_001); MIC in CAMBH media using NBS plates, by OD(600)
Description for Klebsiella pneumoniae: Antibacterial activity against Klebsiella pneumoniae MDR ATCC 70063 (CO-ADD:GN_003); MIC in CAMBH media using NBS plates, by OD(600)
Description for Pseudomonas aeruginosa: Antibacterial activity against Pseudomonas aeruginosa ATCC 27853 (CO-ADD:GN_042); MIC in CAMBH media using NBS plates, by OD(600)
Description for Staphylococcus aureus: Antibacterial activity against Staphylococcus aureus MRSA ATCC 43300 (CO-ADD:GP_020); MIC in CAMBH media, using NBS plates, by OD(600)

As for `CN(C)CCCn1cnc(NC(=O)c2cc(NC(=O)c3cc(NC(=O)c4cc5ccccc5cn4)cn3C)cn2C)c1.O=C(O)C(F)(F)F`, the MIC was over 32 µg/mL with Klebsiella pneumoniae; 16 µg/mL with Cryptococcus neoformans; over 32 µg/mL in the experiment on Escherichia coli; over 32 µg/mL against Acinetobacter baumannii; over 32 µg/mL against Pseudomonas aeruginosa; over 32 µg/mL with Candida albicans. The same molecule came in with an MIC against Staphylococcus aureus of over 32 µg/mL. In the experiment with HEK293, the CC50 came to 7.3 µg/mL.
Consider `COc1cccc(C(=N)Nc2cc(C(=O)Nc3cc(C(=O)Nc4cc(C(=O)NCCCN(C)C)n(CCC(C)C)c4)n(C)c3)n(C)c2)c1`, for which the MIC with Klebsiella pneumoniae, in the experiment on Cryptococcus neoformans, in the experiment with Escherichia coli, against Acinetobacter baumannii, with Pseudomonas aeruginosa and in the experiment with Candida albicans was over 32 µg/mL throughout. This molecule also showed an MIC in the experiment on Staphylococcus aureus of over 32 µg/mL. Moreover, the CC50 with HEK293 was over 32 µg/mL.
In the case of `Cn1cc(NC(=O)c2cc(NC(=O)c3ccc(/C=C/c4ccc(C(F)(F)F)cc4)cc3)cn2C)cc1C(=O)NCCN1CCOCC1.O=C(O)C(F)(F)F`, the MIC against Klebsiella pneumoniae, with Cryptococcus neoformans, in the experiment with Escherichia coli, with Acinetobacter baumannii, against Pseudomonas aeruginosa and against Candida albicans was over 32 µg/mL each time. Also, the MIC with Staphylococcus aureus is over 32 µg/mL. In addition, the CC50 in the experiment with HEK293 is over 32 µg/mL.
In the case of `COC1CCN(CCNC(=O)c2cc(NC(=O)c3cc(NC(=O)c4ccc(/C=C/c5cnc6ccccc6c5)cc4)cn3C)cn2C)CC1`, the MIC was over 32 µg/mL with Klebsiella pneumoniae; 16 µg/mL (≈ 24.3 µM) against Cryptococcus neoformans; over 32 µg/mL with Escherichia coli; over 32 µg/mL with Acinetobacter baumannii; over 32 µg/mL with Pseudomonas aeruginosa; 32 µg/mL (≈ 48.5 µM) in the experiment with Candida albicans. This molecule returned an MIC with Staphylococcus aureus of at most 0.25 µg/mL. Besides, the CC50 in the experiment on HEK293 amounted to 2.89 µg/mL (≈ 4.38 µM).
On to `COC1CCN(CCNC(=O)c2cc(NC(=O)c3cc(NC(=O)c4ccc(/C=C/c5ccc(N(C)C)cc5)nc4)cn3C)cn2C)CC1.O=C(O)C(F)(F)F.O=C(O)C(F)(F)F`, for which the MIC against Klebsiella pneumoniae is over 32 µg/mL; in the experiment on Cryptococcus neoformans, 2 µg/mL; with Escherichia coli it was over 32 µg/mL; against Acinetobacter baumannii, over 32 µg/mL; against Pseudomonas aeruginosa it was over 32 µg/mL; in the experiment with Candida albicans, 2 µg/mL. In addition, the MIC against Staphylococcus aureus was at most 0.25 µg/mL. Besides, the CC50 in the experiment with HEK293 was determined as 1.28 µg/mL.
On to `Cn1cc(NC(=O)c2cc(NC(=O)c3ccc(/C=C/c4ccc5ccccc5n4)cc3)cn2C)cc1C(=O)NCCN1CCOCC1.O=C(O)C(F)(F)F`, for which the MIC is over 32 µg/mL with Klebsiella pneumoniae; 4 µg/mL in the experiment with Cryptococcus neoformans; over 32 µg/mL in the experiment with Escherichia coli; over 32 µg/mL with Acinetobacter baumannii; over 32 µg/mL against Pseudomonas aeruginosa; 4 µg/mL with Candida albicans. In the experiment with Staphylococcus aureus, this molecule had an MIC of 4 µg/mL. The CC50 in the experiment with HEK293 was 1.95 µg/mL.
Regarding `COc1cccc(/C=C/c2ccc(C(=O)Nc3cc(C(=O)Nc4cc(C(=O)NCCCN(C)C)n(C)c4)n(C)c3)cc2)c1.O=C(O)C(F)(F)F`, the MIC in the experiment with Klebsiella pneumoniae, with Cryptococcus neoformans, against Escherichia coli, in the experiment with Acinetobacter baumannii, with Pseudomonas aeruginosa and against Candida albicans was over 32 µg/mL each time. Moreover, in the experiment with Staphylococcus aureus, the MIC is over 32 µg/mL. For the same molecule, the CC50 with HEK293 was 11.4 µg/mL.
For the molecule `CC(C)CCc1sc(NC(=O)c2cc(NC(=O)c3cc4ccccc4cn3)cn2C)nc1C(=O)NCCCN(C)C.O=C(O)C(F)(F)F`, the MIC in the experiment with Klebsiella pneumoniae, with Cryptococcus neoformans, in the experiment with Escherichia coli, against Acinetobacter baumannii, in the experiment on Pseudomonas aeruginosa and in the experiment with Candida albicans was over 32 µg/mL throughout. In addition, in the experiment with Staphylococcus aureus, the MIC is over 32 µg/mL. Further, in the experiment on HEK293, the CC50 was determined as 2.17 µg/mL.
As for `Cn1cc(NC(=O)c2cc(NC(=O)c3ccccc3)cn2C)cc1C(=O)NCCC(=N)N.O=C(O)C(F)(F)F`, the MIC in the experiment on Klebsiella pneumoniae, in the experiment on Cryptococcus neoformans, with Escherichia coli, against Acinetobacter baumannii, against Pseudomonas aeruginosa and in the experiment on Candida albicans was over 32 µg/mL in each case. In the experiment on Staphylococcus aureus, this molecule returned an MIC of over 32 µg/mL. Also, in the experiment with HEK293, the CC50 was determined as 7.43 µg/mL.
As for `Cn1cc(NC(=O)c2cc(NC(=O)c3ccc(/C=C/c4cc5ccccc5nc4On4nnc5ccccc54)cc3)cn2C)cc1C(=O)NCCN1CCOCC1.O=C(O)C(F)(F)F`, the MIC against Klebsiella pneumoniae, in the experiment with Cryptococcus neoformans, against Escherichia coli, with Acinetobacter baumannii, in the experiment with Pseudomonas aeruginosa and against Candida albicans was over 32 µg/mL each time. In the experiment with Staphylococcus aureus, this molecule displayed an MIC of over 32 µg/mL. Besides, in the experiment on HEK293, the half-maximal cytotoxic concentration (CC50) is over 32 µg/mL.
Consider `CN(C)c1ccc(/C=C/c2ccc(C(=O)Nc3cc(C(=O)Nc4cc(C(=O)NCCN5CCOCC5)n(C)c4)n(C)c3)cn2)cc1.O=C(O)C(F)(F)F`, for which the MIC is over 32 µg/mL against Klebsiella pneumoniae; 1 µg/mL with Cryptococcus neoformans; over 32 µg/mL against Escherichia coli; over 32 µg/mL against Acinetobacter baumannii; over 32 µg/mL against Pseudomonas aeruginosa; 2 µg/mL against Candida albicans. In the experiment with Staphylococcus aureus, this molecule showed an MIC of 1 µg/mL. The CC50 in the experiment on HEK293 is 1.11 µg/mL.
Regarding `CC(C)CCc1sc(NC(=O)c2cc(NC(=O)c3cc(NC(=N)c4cnc5ccccc5c4)cn3C)cn2C)nc1C(=O)NCCCN(C)C.O=C(O)C(F)(F)F.O=C(O)C(F)(F)F`, the MIC against Klebsiella pneumoniae was over 32 µg/mL; in the experiment with Cryptococcus neoformans, at most 0.25 µg/mL; in the experiment on Escherichia coli it was over 32 µg/mL; with Acinetobacter baumannii, over 32 µg/mL; against Pseudomonas aeruginosa, over 32 µg/mL; in the experiment on Candida albicans, over 32 µg/mL. Moreover, the MIC in the experiment with Staphylococcus aureus worked out at 1 µg/mL. The CC50 with HEK293 stood at 1.18 µg/mL.
As for `Cn1cc(NC(=O)c2cc(NC(=O)c3cc4ccccc4cn3)cn2C)cc1C(=O)NCCN1CCOCC1.O=C(O)C(F)(F)F`, the MIC in the experiment on Klebsiella pneumoniae, with Cryptococcus neoformans, with Escherichia coli, in the experiment on Acinetobacter baumannii, against Pseudomonas aeruginosa and in the experiment with Candida albicans was over 32 µg/mL in each case. The molecule further showed an MIC in the experiment on Staphylococcus aureus of over 32 µg/mL. For the same molecule, the CC50 with HEK293 was over 32 µg/mL.
For `CSc1ccc(/C=C/c2ccc3cc(C(=O)Nc4cc(C(=O)Nc5cc(C(=O)NCCN6CCOCC6)n(C)c5)n(C)c4)ccc3n2)cc1.O=C(O)C(F)(F)F`, the MIC with Klebsiella pneumoniae was over 32 µg/mL; with Cryptococcus neoformans, 8 µg/mL; against Escherichia coli it was over 32 µg/mL; in the experiment on Acinetobacter baumannii it was over 32 µg/mL; against Pseudomonas aeruginosa it was over 32 µg/mL; in the experiment with Candida albicans it was 4 µg/mL. The same molecule yielded an MIC in the experiment with Staphylococcus aureus of over 32 µg/mL. For the same molecule, the CC50 in the experiment on HEK293 was over 32 µg/mL.
For the molecule `Cn1cc(NC(=O)c2cc(NC(=O)c3ccc(/C=C/c4cnc5ccccc5c4)cc3)cn2C)cc1C(=O)NCC[N+]1([O-])CCCCC1.O=C(O)C(F)(F)F`, the MIC against Klebsiella pneumoniae, in the experiment on Cryptococcus neoformans, with Escherichia coli, in the experiment on Acinetobacter baumannii, with Pseudomonas aeruginosa and against Candida albicans was over 32 µg/mL each time. Also, the MIC in the experiment with Staphylococcus aureus is over 32 µg/mL. For the same molecule, the CC50 with HEK293 came to 2.97 µg/mL.
`COC(=O)c1ccc(C(=O)Nc2cc(C(=O)Nc3cc(C(=O)Nc4nc(C(=O)NCCCN(C)C)c(CCC(C)C)s4)n(C)c3)n(C)c2)cc1.O=C(O)C(F)(F)F`: the MIC in the experiment on Klebsiella pneumoniae, against Cryptococcus neoformans, in the experiment with Escherichia coli, with Acinetobacter baumannii, with Pseudomonas aeruginosa and against Candida albicans was over 32 µg/mL each time. In the experiment with Staphylococcus aureus, this molecule yielded an MIC of over 32 µg/mL. Further, in the experiment on HEK293, the CC50 amounted to 2.72 µg/mL.
Consider `Cn1cc(NC(=O)c2cc(NC(=O)c3cc(NC(=O)c4ccc(Cl)cc4Cl)cn3C)cn2C)cc1C(=O)NCCCN1CCOCC1.O=C(O)C(F)(F)F`, for which the MIC against Klebsiella pneumoniae, in the experiment on Cryptococcus neoformans, in the experiment on Escherichia coli, in the experiment with Acinetobacter baumannii, in the experiment on Pseudomonas aeruginosa and in the experiment on Candida albicans was over 32 µg/mL each time. This molecule also showed an MIC in the experiment on Staphylococcus aureus of over 32 µg/mL. Also, the CC50 in the experiment on HEK293 is 7.32 µg/mL.
For the molecule `CC(C)c1sc(NC(=O)c2cc(NC(=O)c3cc(NC(=O)c4cc(NC=O)cn4C)cn3C)cn2C)nc1C(=O)NCCCN(C)C.O=C(O)C(F)(F)F`, the MIC in the experiment on Klebsiella pneumoniae, in the experiment with Cryptococcus neoformans, in the experiment with Escherichia coli, against Acinetobacter baumannii, in the experiment on Pseudomonas aeruginosa and with Candida albicans was over 32 µg/mL in each case. In the experiment with Staphylococcus aureus, this molecule displayed an MIC of 16 µg/mL. Moreover, the CC50 with HEK293 was over 32 µg/mL.
Take `CN(C)CCCNC(=O)c1cc(NC(=O)c2cc(NC(=O)c3cc(NC(=N)c4cnc5ccccc5c4)cn3C)cn2C)cn1C.O=C(O)C(F)(F)F.O=C(O)C(F)(F)F`: the MIC with Klebsiella pneumoniae was over 32 µg/mL; against Cryptococcus neoformans, 8 µg/mL; in the experiment on Escherichia coli, over 32 µg/mL; with Acinetobacter baumannii, over 32 µg/mL; against Pseudomonas aeruginosa it was over 32 µg/mL; in the experiment on Candida albicans, over 32 µg/mL. Moreover, the MIC in the experiment on Staphylococcus aureus is over 32 µg/mL. Also, the CC50 with HEK293 is over 32 µg/mL.

In general, CC50 refers to the concentration giving 50% cytotoxicity.
